According to patent US8742114B2, “Nucleic acid detections and methods of their use” (priority 2011, dated 2014):
One block for each compound: values may come before it.

Key:
[1] = tested on: live and fixed HeLa cells; test: Cellular nucleic acid staining; type: cell-based; settings: 1 μM in PBS buffer, 10 min, fluorescence microscopy, FIG. 5
Procedure: Compound 38, compound 42, and compound 61 were prepared in 1 mM stock solution in water, respectively. Each compound at 1 μM concentration in PBS buffer was incubated with live and fixed HeLa cells in 96-well plate for 10 min, respectively. The fluorescence imaging of cells was taken on a fluorescence microscopy with a 488 nm excitation laser and a 520±15 nm emission filter, as shown in FIG. 5.

nucleic acids = settings: background; cited from earlier work
[2] = background; cited from earlier work
DNA or RNA = test: Binding selectivity on DNA or RNA (effect of R3); settings: R3 methyl 4-benzoate versus R3 H
dsDNA, ssDNA, and RNA = test: Selectivity test on dsDNA, ssDNA, and RNA in TE buffer; settings: 2 μM dye, 10 μg/mL nucleic acid, 1×TE buffer, ex 480 nm (36, 40) or 620 nm (49), FIG. 2

live cell permeability [1]: live cell impermeant
Structure (SMILES): CN(C)CCCN(CCCN(C)C)C1=C/C(=C\c2sc3ccccc3[n+]2C)c2ccccc2N1CCCCCC(=O)NCCOCCO.[I-] [Compound 61]

Structure (SMILES): CCCN1C=C/C(=C\c2sc3ccccc3[n+]2C)c2ccccc21 [SYBR Safe]
detection sensitivity on nucleic acids (nucleic acids): low sensitive than desired

Structure (SMILES): CC[n+]1c(-c2ccccc2)c2cc(N)ccc2c2ccc(N)cc21 [ethidium bromide, Ethidium bromide]
mutagenicity [2]: mutagenic

live cell permeability [1]: live cell impermeant
Structure (SMILES): CC[N+](C)(CC)Cc1ccc(C2=C/C(=C/c3sc4ccccc4[n+]3C)c3ccccc3N2CCOCCOCCOCCOC)cc1 [Compound 42]

Structure (SMILES): CN1C(=Cc2cc[n+](C)c3ccccc23)Sc2ccccc21 [Thiazole Orange]
detection sensitivity on nucleic acids (nucleic acids): low detection sensitivity

binding selectivity on DNA or RNA (DNA or RNA): high selectivity for DNA over RNA
Structure (SMILES): CN(C)CCCN(CCCN(C)C)C1=C/C(=C\C=C\c2sc3ccc(S(=O)(=O)[O-])cc3[n+]2C)c2ccccc2N1C [Compound 53]

Structure (SMILES): COCCOCCOCCOCCN1C(N(CCC[N+](C)(C)C)CCC[N+](C)(C)C)=C/C(=C/c2sc3ccccc3[n+]2C)c2ccccc21 [Compound 40]
selectivity among dsDNA, ssDNA and RNA (fluorescence emission spectra) (dsDNA, ssDNA, and RNA): good selectivity for DNA versus RNA
